According to ChEMBL document CHEMBL4257082, “Nhe3-binding compounds and methods for inhibiting phosphate transport” (2016):

What was measured:
[1] = target: Sodium/hydrogen exchanger 1 (Rattus norvegicus, UniProt P26431); assay: Inhibition of rat NHE1
[2] = target: T1, Sodium/hydrogen exchanger 2 (Rattus norvegicus, UniProt P48763); assay: Inhibition of rat NHE2
T1 sequence (P48763 whole entry): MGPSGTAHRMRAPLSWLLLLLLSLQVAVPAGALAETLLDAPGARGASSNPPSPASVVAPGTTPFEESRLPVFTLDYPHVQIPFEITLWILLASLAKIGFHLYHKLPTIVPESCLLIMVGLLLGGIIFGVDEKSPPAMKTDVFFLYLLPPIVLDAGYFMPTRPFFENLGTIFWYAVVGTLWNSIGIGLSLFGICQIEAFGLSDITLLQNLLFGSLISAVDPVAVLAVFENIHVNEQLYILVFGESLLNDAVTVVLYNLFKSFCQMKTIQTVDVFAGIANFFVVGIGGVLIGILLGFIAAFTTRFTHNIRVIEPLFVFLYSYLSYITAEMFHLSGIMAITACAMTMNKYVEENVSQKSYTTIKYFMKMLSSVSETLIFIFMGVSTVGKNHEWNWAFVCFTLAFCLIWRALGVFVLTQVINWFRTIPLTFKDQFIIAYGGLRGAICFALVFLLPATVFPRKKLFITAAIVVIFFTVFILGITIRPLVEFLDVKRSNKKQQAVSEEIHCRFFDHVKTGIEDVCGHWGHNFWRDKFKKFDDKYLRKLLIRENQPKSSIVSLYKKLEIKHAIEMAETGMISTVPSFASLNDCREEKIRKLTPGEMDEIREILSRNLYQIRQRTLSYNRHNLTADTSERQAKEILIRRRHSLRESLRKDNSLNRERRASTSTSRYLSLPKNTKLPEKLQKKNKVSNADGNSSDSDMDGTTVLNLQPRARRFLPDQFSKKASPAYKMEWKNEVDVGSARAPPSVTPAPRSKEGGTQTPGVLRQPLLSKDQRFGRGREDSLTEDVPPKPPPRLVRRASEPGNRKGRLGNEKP

[3] = target: Sodium/hydrogen exchanger 3 (Rattus norvegicus, UniProt P26433); assay: Inhibition of rat NHE3
Sequence of Sodium/hydrogen exchanger 3 (P26433 whole entry): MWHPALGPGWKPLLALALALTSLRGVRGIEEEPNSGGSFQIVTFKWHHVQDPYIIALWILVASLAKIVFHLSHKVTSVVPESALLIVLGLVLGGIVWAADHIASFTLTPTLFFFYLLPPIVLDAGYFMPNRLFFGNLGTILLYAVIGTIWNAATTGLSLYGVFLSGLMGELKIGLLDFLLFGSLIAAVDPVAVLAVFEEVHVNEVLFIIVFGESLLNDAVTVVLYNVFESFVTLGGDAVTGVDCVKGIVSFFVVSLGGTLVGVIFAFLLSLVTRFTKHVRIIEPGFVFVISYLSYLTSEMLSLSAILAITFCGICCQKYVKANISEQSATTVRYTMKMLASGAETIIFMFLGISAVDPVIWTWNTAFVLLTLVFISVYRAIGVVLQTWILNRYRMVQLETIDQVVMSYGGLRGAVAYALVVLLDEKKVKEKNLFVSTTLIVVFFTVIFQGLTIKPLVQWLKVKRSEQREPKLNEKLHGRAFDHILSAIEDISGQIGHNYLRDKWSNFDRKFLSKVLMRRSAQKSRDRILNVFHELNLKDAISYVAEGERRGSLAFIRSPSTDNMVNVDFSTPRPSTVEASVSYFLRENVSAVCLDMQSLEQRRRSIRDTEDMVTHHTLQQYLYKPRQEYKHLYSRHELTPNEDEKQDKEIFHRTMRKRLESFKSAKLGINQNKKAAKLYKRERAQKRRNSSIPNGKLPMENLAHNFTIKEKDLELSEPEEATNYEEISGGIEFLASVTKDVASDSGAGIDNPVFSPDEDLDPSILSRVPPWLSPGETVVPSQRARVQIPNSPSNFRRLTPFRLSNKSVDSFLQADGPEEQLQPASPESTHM

Sequence of Sodium/hydrogen exchanger 1 (P26431 whole entry): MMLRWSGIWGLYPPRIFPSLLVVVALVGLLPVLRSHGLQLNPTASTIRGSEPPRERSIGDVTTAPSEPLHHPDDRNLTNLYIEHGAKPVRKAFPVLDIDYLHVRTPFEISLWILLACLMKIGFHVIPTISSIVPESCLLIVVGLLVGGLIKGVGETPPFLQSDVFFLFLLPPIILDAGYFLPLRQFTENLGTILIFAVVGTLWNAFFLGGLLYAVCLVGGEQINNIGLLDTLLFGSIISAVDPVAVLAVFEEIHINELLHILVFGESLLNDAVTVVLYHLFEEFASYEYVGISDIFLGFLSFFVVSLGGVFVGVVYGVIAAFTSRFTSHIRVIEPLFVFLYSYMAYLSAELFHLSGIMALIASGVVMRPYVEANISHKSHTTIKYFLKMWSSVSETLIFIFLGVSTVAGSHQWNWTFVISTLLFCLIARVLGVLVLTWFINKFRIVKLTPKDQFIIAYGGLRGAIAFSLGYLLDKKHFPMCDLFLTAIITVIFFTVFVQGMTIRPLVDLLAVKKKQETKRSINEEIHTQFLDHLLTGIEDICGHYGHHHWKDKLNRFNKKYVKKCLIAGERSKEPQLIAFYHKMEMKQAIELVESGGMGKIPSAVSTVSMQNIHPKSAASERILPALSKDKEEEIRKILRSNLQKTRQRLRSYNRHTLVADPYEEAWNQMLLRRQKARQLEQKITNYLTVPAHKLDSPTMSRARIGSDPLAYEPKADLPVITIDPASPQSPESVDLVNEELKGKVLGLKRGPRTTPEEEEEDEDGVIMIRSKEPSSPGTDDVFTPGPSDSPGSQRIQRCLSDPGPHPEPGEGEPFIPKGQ

CN(C)c1nc(N)c(C(=O)NC(=N)N)nc1Cl
IC50 [1]: 0.023 µM | IC50 [2]: 0.25 µM | IC50 [3]: 14 µM
